Key:
LPV intrinsic clearance [1] = test: LPV-RTV interaction modeling; format: in vivo, human
[2] = Population PK model of unbound and total LPV/RTV in HIV-infected pregnant women; format: in vivo, human; conditions: for Total body clearance CL/F, back-calculated, median (range): intrinsic clearance × unbound fraction
LPV intrinsic clearance [3] = conditions: same interaction function form; ref Wang et al., 32; cited from earlier work
[4] = 2nd trimester vs. pp; capsules; ref Mirochnick et al., JAIDS, 2008 (9); cited from earlier work
[5] = final model, 500 bootstrap replicates
[6] = final model, 500 bootstrap replicates, weight-scaled model (per 70kg)

## CC(C)c1nc(CN(C)C(=O)N[C@H](C(=O)N[C@@H](Cc2ccccc2)C[C@H](O)[C@H](Cc2ccccc2)NC(=O)OCc2cncs2)C(C)C)cs1 [RTV, ritonavir]
LPV intrinsic clearance [1]; Model 6, CRTV exponential model, unbound RTV concentration
  Interaction parameter (coef): 0.0028
LPV intrinsic clearance [1]; exponential interaction function
  Interaction coefficient in terms of total RTV concentration: 0.00041
[2]; Visit 1 (20–24 weeks)
  Apparent intrinsic clearance CLu/F, post hoc estimate, median (range): 273 (161, 421) L/hr
  Total body clearance CL/F, back-calculated, median (range): 38.2 (26.0, 42.1) L/hr
[2]; Visit 2 (30 weeks)
  Total body clearance CL/F, back-calculated, median (range): 52.3 (33.6, 74.1) L/hr
[2]; Visit 3 (32 weeks)
  Apparent intrinsic clearance CLu/F, post hoc estimate, median (range): 357 (191, 508) L/hr
  Total body clearance CL/F, back-calculated, median (range): 58.5 (32.6, 93.6) L/hr
[2]; Visit 4 (8 weeks postpartum)
  Apparent intrinsic clearance CLu/F, post hoc estimate, median (range): 178 (101, 257) L/hr
  Total body clearance CL/F, back-calculated, median (range): 26.9 (16.6, 37.5) L/hr
[2]; final model
  Interindividual variability of CLu/F, bootstrap estimates (95% CI): 10.6 (1.92, 19.0) %CV
  Interindividual variability of CLu/F, estimate: 8.5 %CV
  Interindividual variability of fu, bootstrap estimates (95% CI): 23.3 (12.2, 34.4) %CV
  Interindividual variability of fu, estimate: 24.4 %CV
  Interoccasion variability of F, bootstrap estimates (95% CI): 30.9 (17.1, 46.1) %CV
  Interoccasion variability of F, estimate: 36.2 %CV
  Interoccasion variability of fu, bootstrap estimates (95% CI): 20.8 (12.6, 28.6) %CV
  Interoccasion variability of fu, estimate: 23.5 %CV
  Interoccasion variability of ka, bootstrap estimates (95% CI): 142 (81.5, 201) %CV
  Interoccasion variability of ka, estimate: 141.8 %CV
  Lag time, estimate: 1.86 h
  ka, estimate: 1.01 h⁻¹
[2]; [5]
  Lag time, bootstrap estimates (95% CI): 1.86 (1.67, 1.94) h
  ka, bootstrap estimates (95% CI): 1.01 (0.340, 2.00) h^−1
[2]; [6]
  CLu/F, bootstrap estimates (95% CI): 157 (120, 202) L/h
  Vu/F, bootstrap estimates (95% CI): 1630 (1040, 2100) L
LPV intrinsic clearance [3]
  Interaction value (LPV-RTV interaction coefficient): 0.00064

## Cc1cccc(C)c1OCC(=O)N[C@@H](Cc1ccccc1)[C@@H](O)C[C@H](Cc1ccccc1)NC(=O)[C@H](C(C)C)N1CCCNC1=O [LPV, lopinavir]
LPV intrinsic clearance [1]; Basic joint model: LPV and RTV individual final models without interactions
  LPV clearance estimate (CLu/F): 167 L/h
[2]; 20–24 weeks of gestation (22 weeks elsewhere in the source)
  Increase of median post hoc CLu/F compared to 8 weeks postpartum: 38%
[2]; 30 weeks of gestation
  Increase of median post hoc CLu/F compared to 8 weeks postpartum: 56%
[2]; 32 weeks of gestation
  Increase of median post hoc CLu/F compared to 8 weeks postpartum: 61%
[2]; CL/F = fu × CLu/F
  CL/F, estimate: 4.31 L/h
[2]; V/F = fu × Vu/F
  V/F, estimate: 88.5 L
[2]; Visit 1 (20–24 weeks)
  Apparent intrinsic clearance CLu/F, post hoc estimate, median (range): 232 (226, 237) L/hr
  Total body clearance CL/F, back-calculated, median (range): 5.92 (5.22, 7.22) L/hr
[2]; Visit 2 (30 weeks)
  Apparent intrinsic clearance CLu/F, post hoc estimate, median (range): 261 (255, 264) L/hr
  Total body clearance CL/F, back-calculated, median (range): 6.69 (5.73, 8.21) L/hr
[2]; Visit 3 (32 weeks)
  Apparent intrinsic clearance CLu/F, post hoc estimate, median (range): 269 (263, 276) L/hr
  Total body clearance CL/F, back-calculated, median (range): 6.94 (5.90, 8.46) L/hr
[2]; Visit 4 (8 weeks postpartum)
  Apparent intrinsic clearance CLu/F, post hoc estimate, median (range): 167 (165, 168) L/hr
  Total body clearance CL/F, back-calculated, median (range): 4.28 (3.65, 5.25) L/hr
[2]; female, human, plasma, oral, fu, estimate, final model, unbound fraction
  fraction unbound: 0.0258
[2]; final model
  Interindividual variability of CLu/F, bootstrap estimates (95% CI): 2.10 (0.32, 11.4) %CV
  Interindividual variability of CLu/F, estimate: 2.70 %CV
  Interindividual variability of fu, bootstrap estimates (95% CI): 3.81 (0.32, 10.3) %CV
  Interindividual variability of fu, estimate: 4.60 %CV
  Interoccasion variability of CLu/F, bootstrap estimates (95% CI): 23.4 (16.1, 29.7) %CV
  Interoccasion variability of CLu/F, estimate: 24.7 %CV
  Interoccasion variability of fu, bootstrap estimates (95% CI): 9.98 (4.68, 13.3) %CV
  Interoccasion variability of fu, estimate: 10.0 %CV
  Interoccasion variability of ka, estimate: 138 %CV
  Lag time, estimate: 1.77 h
  Vu/F, estimate: 3430 L
  ka, estimate: 1.07 h⁻¹
[2]; [5]
  CLu/F, bootstrap estimates (95% CI): 167 (136, 202) L/h
  Coefficient of gestational week impact on CLu/F, bootstrap estimates (95% CI): 0.0148 (0.00835, 0.0223)
  Lag time, bootstrap estimates (95% CI): 1.75 (1.25, 1.93) h
  Vu/F, bootstrap estimates (95% CI): 3325 (2655, 4256) L
  ka, bootstrap estimates (95% CI): 0.906 (0.582, 1.78) h^−1
[2]; final model, population value at gestational week zero (postpartum reference)
  CLu/F, estimate: 167 L/h
[2]; individual final model, CLu/F = θ × e^(coef×WEEK)
  Coefficient of gestational week impact on CLu/F, estimate: 0.0148
[2]; population PK covariate analysis
  Unbound fraction, pregnancy vs postpartum: not significantly different
[2]; post hoc repeated-measures ANOVA, P > 0.05
  Difference among unbound AUC fractions across the four study visits: no significant findings
[4]
  Decrease in AUC: 52%

Source: paper PMC4807435 (CPT: Pharmacometrics & Systems Pharmacology, 2016)
